Publication PMC9611657, “Bruton’s Tyrosine Kinase Inhibitor Zanubrutinib Effectively Modulates Cancer Resistance by Inhibiting Anthracycline Metabolism and Efflux” (Pharmaceutics, 2022)

Columns and labels:
[1] = target: T1, aldo-keto reductase 1C3 (AKR1C3) (Homo sapiens, UniProt P42330); assay: reduction to daunorubicinol by recombinant enzyme (DAUN […]), UHPLC, Michaelis-Menten kinetics; assay type: biochemical
T1 construct: human recombinant AKR1C3 from E. coli BL21(DE3), HisTrap purified
T1 sequence (P42330 1-323): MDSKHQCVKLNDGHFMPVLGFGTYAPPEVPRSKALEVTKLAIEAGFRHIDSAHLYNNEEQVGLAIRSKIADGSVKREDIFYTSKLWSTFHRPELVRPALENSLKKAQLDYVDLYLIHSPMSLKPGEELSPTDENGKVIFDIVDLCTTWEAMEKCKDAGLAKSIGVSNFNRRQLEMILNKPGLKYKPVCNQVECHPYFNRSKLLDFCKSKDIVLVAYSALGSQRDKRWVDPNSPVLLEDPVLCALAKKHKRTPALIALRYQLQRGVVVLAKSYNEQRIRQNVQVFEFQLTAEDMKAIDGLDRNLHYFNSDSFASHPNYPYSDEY

[2] = target: T1, aldo-keto reductase 1C3 (AKR1C3); assay: inhibition of daunorubicin reduction by recombinant enzyme, UHPLC of DAUN-OL, Michaelis-Menten/Lineweaver-Burk; assay type: biochemical

| Structure (SMILES) | reduction to daunorubicinol by recombinant enzyme (DAUN 200-2000 μM), UHPLC, Mic [1] | Ki [2] [nM] |
| --- | --- | --- |
| COc1cccc2c1C(=O)c1c(O)c3c(c(O)c1C2=O)C[C@@](O)(C(C)=O)C[C@@H]3O[C@H]1C[C@H](N)[C@H](O)[C@H](C)O1 [DAUN, Daunorubicin] | AKR1C3 was incubated with the substrate DAUN, with or without ZAN. |  |
| C=CC(=O)N1CCC([C@@H]2CCNc3c(C(N)=O)c(-c4ccc(Oc5ccccc5)cc4)nn32)CC1 [ZAN, Zanubrutinib] |  | 2900 |
